Experimental data reported in patent US20170050957A1, “4-AMINO-6-(HETEROCYCLIC)PICOLINATES AND 6-AMINO-2-(HETEROCYCLIC)PYRIMIDINE-4-CARBOXYLATES AND THEIR USE AS HERBICIDES” (Dow AgroSciences LLC, priority 2013, published 2017).
Like-named read-outs stand apart in the source and are kept apart here.

Key:
[1] = test system: Key Broadleaf Weed and Crop Species; assay: Post-emergent Test II herbicidal activity (Table 15); assay type: in vivo; details: post-emergence, 336 h, 14 d; for pest or weed control at 35 g/ha: 35 g ai/ha; for pest or weed control at 70 g/ha: 70 g ai/ha; for pest or weed control at 140 g/ha: 140 g ai/ha
Procedure, shortened: (§1)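 Visual injury rating (0 = none, 100% = complete kill) made 14 d after treatment, relative to untreated plants. Compounds in an acetone/DMSO/aqueous crop-oil/surfactant spray, at top rate and serial 1/2×-1/16× rates, were applied at 187 L/ha overhead to first-second true leaf plants raised 7-21 d in greenhouse.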

[2] = test system: Key Grass and Sedge Weeds as well as Grass Crops; assay: Post-emergent Test II herbicidal activity (Table 16); assay type: in vivo; details: post-emergence, 336 h, 14 d; for pest or weed control at 35 g/ha: 35 g ai/ha; for pest or weed control at 70 g/ha: 70 g ai/ha; for pest or weed control at 140 g/ha: 140 g ai/ha
Procedure, shortened: as §1

[3] = Abutilon theophrasti, velvetleaf (Abutilon theophrasti), read-out: Visual Growth Reduction (%) 14 Days After Application, ABUTH
[4] = Amaranthus retroflexus, redroot pigweed (Amaranthus retroflexus), read-out: Visual Growth Reduction (%) 14 Days After Application, AMARE
[5] = Brassica napus, oilseed rape, canola (Brassica napus), read-out: Visual Growth Reduction (%) 14 Days After Application, BRSNN
[6] = Chenopodium album, lambsquarters (Chenopodium album), read-out: Visual Growth Reduction (%) 14 Days After Application, CHEAL
[7] = Euphorbia heterophylla, wild poinsettia (Euphorbia heterophylla), read-out: Visual Growth Reduction (%) 14 Days After Application, EPHHL
[8] = Helianthus annuus, sunflower (Helianthus annuus), read-out: Visual Growth Reduction (%) 14 Days After Application, HELAN
[9] = Cyperus esculentus, yellow nutsedge (Cyperus esculentus), read-out: Visual Growth Reduction (%) 14 Days After Application, CYPES
[10] = Echinochloa crus-galli, barnyardgrass (Echinochloa crus-galli), read-out: Visual Growth Reduction (%) 14 Days After Application, ECHCG
[11] = Oryza sativa, rice (Oryza sativa), read-out: Visual Growth Reduction (%) 14 Days After Application, ORYSA
[12] = Setaria faberi, giant foxtail (Setaria faberi), read-out: Visual Growth Reduction (%) 14 Days After Application, SETFA
[13] = Triticum aestivum, wheat, spring (Triticum aestivum), read-out: Visual Growth Reduction (%) 14 Days After Application, TRZAS
[14] = Zea mays, maize, corn (Zea mays), read-out: Visual Growth Reduction (%) 14 Days After Application, ZEAMX

Row | Compound | melting point | pest or weed control at 35 g/ha [1, 3] | pest or weed control at 70 g/ha [1, 3] | pest or weed control at 140 g/ha [1, 3] | pest or weed control at 35 g/ha [1, 4] | pest or weed control at 70 g/ha [1, 4] | pest or weed control at 140 g/ha [1, 4] | pest or weed control at 35 g/ha [1, 5] | pest or weed control at 70 g/ha [1, 5] | pest or weed control at 140 g/ha [1, 5] | pest or weed control at 35 g/ha [1, 6] | pest or weed control at 70 g/ha [1, 6] | pest or weed control at 140 g/ha [1, 6] | pest or weed control at 35 g/ha [1, 7] | pest or weed control at 70 g/ha [1, 7] | pest or weed control at 140 g/ha [1, 7] | pest or weed control at 35 g/ha [1, 8] | pest or weed control at 70 g/ha [1, 8] | pest or weed control at 140 g/ha [1, 8] | pest or weed control at 35 g/ha [2, 9] | further results
1 | COC(=O)c1nc(-c2ccc3cc[nH]c3c2)nc(N)c1Cl [Compound 1.30] | 240 to 242 °C | 0 to 29% | 0 to 29% | 75 to 84% | 0 to 29% | 75 to 84% | 60 to 74% | 45 to 59% | 45 to 59% | 60 to 74% | 30 to 44% | 30 to 44% | 45 to 59% | 0 to 29% | 45 to 59% | 60 to 74% | 0 to 29% | 0 to 29% | 0 to 29% | 0 to 29% | pest or weed control at 70 g/ha [2, 9]: 0 to 29%; pest or weed control at 140 g/ha [2, 9]: 0 to 29%; pest or weed control at 35 g/ha [2, 10]: 0 to 29%; pest or weed control at 70 g/ha [2, 10]: 0 to 29%; pest or weed control at 140 g/ha [2, 10]: 0 to 29%; pest or weed control at 35 g/ha [2, 11]: 0 to 29%; pest or weed control at 70 g/ha [2, 11]: 0 to 29%; pest or weed control at 140 g/ha [2, 11]: 0 to 29%; pest or weed control at 35 g/ha [2, 12]: 0 to 29%; pest or weed control at 70 g/ha [2, 12]: 0 to 29%; pest or weed control at 140 g/ha [2, 12]: 0 to 29%; pest or weed control at 35 g/ha [2, 13]: 0 to 29%; pest or weed control at 70 g/ha [2, 13]: 0 to 29%; pest or weed control at 140 g/ha [2, 13]: 0 to 29%; pest or weed control at 35 g/ha [2, 14]: 0 to 29%; pest or weed control at 70 g/ha [2, 14]: 0 to 29%; pest or weed control at 140 g/ha [2, 14]: 0 to 29%
2 | COc1c(N)nc(-c2ccc3cc[nH]c3c2)nc1C(=O)O [Compound 1.33] | 154 to 157 °C | 0 to 29% | 0 to 29% | 0 to 29% | 60 to 74% | 60 to 74% | 75 to 84% | 95 to 100% | 95 to 100% | 95 to 100% | 0 to 29% | 45 to 59% | 60 to 74% | 45 to 59% | 60 to 74% | 75 to 84% | 60 to 74% | 60 to 74% | 75 to 84% | 0 to 29% | pest or weed control at 70 g/ha [2, 9]: 0 to 29%; pest or weed control at 140 g/ha [2, 9]: 0 to 29%; pest or weed control at 35 g/ha [2, 10]: 0 to 29%; pest or weed control at 70 g/ha [2, 10]: 0 to 29%; pest or weed control at 140 g/ha [2, 10]: 0 to 29%; pest or weed control at 35 g/ha [2, 11]: 0 to 29%; pest or weed control at 70 g/ha [2, 11]: 0 to 29%; pest or weed control at 140 g/ha [2, 11]: 0 to 29%; pest or weed control at 35 g/ha [2, 12]: 0 to 29%; pest or weed control at 70 g/ha [2, 12]: 0 to 29%; pest or weed control at 140 g/ha [2, 12]: 0 to 29%; pest or weed control at 35 g/ha [2, 13]: 0 to 29%; pest or weed control at 70 g/ha [2, 13]: 0 to 29%; pest or weed control at 140 g/ha [2, 13]: 30 to 44%
